Test results published in the supplement of paper PMC10307832.

Experiments:
Assay in all cases: relative viability (nuclei count vs DMSO), 5 days (fraction); higher = more cells survive
LCLC-103H = system: LCLC-103H
How it was run: (§1)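 Nuclei were stained with Hoechst during a one-step fixation (final 0.05% Triton X-100, 1% formaldehyde, 1 ug/ml Hoechst) carried out 5 days after dosing, then counted on 4× images. The cells, lung cancer lines in 1536-well plates, had been dosed by pin tool the day after seeding with one drug alone or a fixed anchor-drug dose plus five library-drug doses (not always all listed) in √10 steps. Relative viability is the nuclei count in treated wells divided by that in vehicle wells, and each value is the median of duplicate plates.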

NCI-H1993 = system: NCI-H1993
How it was run: as §1

RERF-LC-KJ = system: RERF-LC-KJ
How it was run: as §1

NCI-H1651 = system: NCI-H1651
How it was run: as §1

HOP-62 = system: HOP-62
How it was run: as §1

COR-L 105 = system: COR-L 105
How it was run: as §1

COR-L23 = system: COR-L23
How it was run: as §1

NCI-H647 = system: NCI-H647
How it was run: as §1

SK-MES-1 = system: SK-MES-1
How it was run: as §1

NCI-H1395 = system: NCI-H1395
How it was run: as §1

NCI-H2085 = system: NCI-H2085
How it was run: as §1

NCI-H3122 = system: NCI-H3122
How it was run: as §1

NCI-H1975 = system: NCI-H1975
How it was run: as §1

PC-14 = system: PC-14
How it was run: as §1

NCI-H2087 = system: NCI-H2087
How it was run: as §1

LXF-289 = system: LXF-289
How it was run: as §1

NCI-H596 = system: NCI-H596
How it was run: as §1

EPLC-272H = system: EPLC-272H
How it was run: as §1

NCI-H2023 = system: NCI-H2023
How it was run: as §1

NCI-H2170 = system: NCI-H2170
How it was run: as §1

NCI-H650 = system: NCI-H650
How it was run: as §1

A-427 = system: A-427
How it was run: as §1

CAL-12T = system: CAL-12T
How it was run: as §1

For `Cc1cnc(-c2cnc(NCCNc3ccc(C#N)cn3)nc2-c2ccc(Cl)cc2Cl)[nH]1` + Cc1nc(NC(=O)N2CCC[C@H]2C(N)=O)sc1-c1ccnc(C(C)(C)C(F)(F)F)c1 [Alpelisib] (partner 2 µM), which relative viability (LCLC-103H; first compound 0.08 µM) is on record?
Its relative viability is 1.16.

What about the relative viability (LCLC-103H; first compound 0.253 µM) of the same compound?
Its relative viability is 0.958.

What about the relative viability (LCLC-103H; first compound 0.8 µM) of the same compound?
Its relative viability is 1.07.

And the relative viability (LCLC-103H; first compound 2.53 µM)?
The relative viability was 0.951.

And the relative viability (NCI-H1993; first compound 0.08 µM)?
Its relative viability is 0.715.

What about the relative viability (NCI-H1993; first compound 0.253 µM) of the same compound?
Its relative viability is 0.72.

And the relative viability (NCI-H1993; first compound 0.8 µM)?
The relative viability was 0.683.

And the relative viability (NCI-H1993; first compound 2.53 µM)?
Its relative viability is 0.694.

And the relative viability (RERF-LC-KJ; first compound 0.08 µM)?
The relative viability was 0.984.

And the relative viability (RERF-LC-KJ; first compound 0.253 µM)?
The relative viability was 0.746.

What about the relative viability (RERF-LC-KJ; first compound 0.8 µM) of the same compound?
Its relative viability is 0.775.

What about the relative viability (RERF-LC-KJ; first compound 2.53 µM) of the same compound?
The relative viability was 0.916.

And the relative viability (NCI-H1651; first compound 0.08 µM)?
The relative viability was 1.08.

And the relative viability (NCI-H1651; first compound 0.253 µM)?
The relative viability was 0.903.

And the relative viability (NCI-H1651; first compound 0.8 µM)?
Its relative viability is 0.965.

And the relative viability (NCI-H1651; first compound 2.53 µM)?
The relative viability was 0.991.

What about the relative viability (HOP-62; first compound 0.08 µM) of the same compound?
The relative viability was 1.

What about the relative viability (HOP-62; first compound 0.253 µM) of the same compound?
The relative viability was 0.902.

What about the relative viability (HOP-62; first compound 0.8 µM) of the same compound?
Its relative viability is 0.958.

What about the relative viability (HOP-62; first compound 2.53 µM) of the same compound?
The relative viability was 1.14.

And the relative viability (COR-L 105; first compound 0.08 µM)?
Its relative viability is 0.994.

And the relative viability (COR-L 105; first compound 0.253 µM)?
The relative viability was 0.927.

And the relative viability (COR-L 105; first compound 0.8 µM)?
Its relative viability is 1.11.

And the relative viability (COR-L 105; first compound 2.53 µM)?
The relative viability was 0.612.

And the relative viability (COR-L23; first compound 0.08 µM)?
The relative viability was 0.918.

What about the relative viability (COR-L23; first compound 0.253 µM) of the same compound?
The relative viability was 0.649.

What about the relative viability (COR-L23; first compound 0.8 µM) of the same compound?
The relative viability was 0.826.

And the relative viability (COR-L23; first compound 2.53 µM)?
Its relative viability is 0.774.

And the relative viability (NCI-H647; first compound 0.08 µM)?
Its relative viability is 1.19.

What about the relative viability (NCI-H647; first compound 0.253 µM) of the same compound?
Its relative viability is 1.08.

What about the relative viability (NCI-H647; first compound 0.8 µM) of the same compound?
The relative viability was 1.05.

What about the relative viability (NCI-H647; first compound 2.53 µM) of the same compound?
Its relative viability is 1.22.

And the relative viability (SK-MES-1; first compound 0.08 µM)?
Its relative viability is 1.01.

And the relative viability (SK-MES-1; first compound 0.253 µM)?
Its relative viability is 0.888.

And the relative viability (SK-MES-1; first compound 2.53 µM)?
The relative viability was 0.911.

And the relative viability (NCI-H1395; first compound 0.08 µM)?
The relative viability was 1.23.

And the relative viability (NCI-H1395; first compound 0.253 µM)?
Its relative viability is 1.03.

What about the relative viability (NCI-H1395; first compound 0.8 µM) of the same compound?
The relative viability was 1.41.

What about the relative viability (NCI-H1395; first compound 2.53 µM) of the same compound?
The relative viability was 0.971.

And the relative viability (NCI-H2085; first compound 0.08 µM)?
Its relative viability is 1.13.

And the relative viability (NCI-H2085; first compound 0.253 µM)?
The relative viability was 1.03.

What about the relative viability (NCI-H2085; first compound 0.8 µM) of the same compound?
The relative viability was 0.94.

And the relative viability (NCI-H2085; first compound 2.53 µM)?
The relative viability was 0.961.

And the relative viability (NCI-H3122; first compound 0.08 µM)?
Its relative viability is 0.858.

And the relative viability (NCI-H3122; first compound 0.253 µM)?
Its relative viability is 0.771.

What about the relative viability (NCI-H3122; first compound 0.8 µM) of the same compound?
Its relative viability is 0.725.

And the relative viability (NCI-H3122; first compound 2.53 µM)?
Its relative viability is 0.762.

What about the relative viability (NCI-H1975; first compound 0.08 µM) of the same compound?
Its relative viability is 0.667.

What about the relative viability (NCI-H1975; first compound 0.253 µM) of the same compound?
Its relative viability is 0.571.

What about the relative viability (NCI-H1975; first compound 0.8 µM) of the same compound?
The relative viability was 0.561.

What about the relative viability (NCI-H1975; first compound 2.53 µM) of the same compound?
Its relative viability is 0.52.

What about the relative viability (PC-14; first compound 0.08 µM) of the same compound?
The relative viability was 0.927.

And the relative viability (PC-14; first compound 0.253 µM)?
The relative viability was 0.834.

And the relative viability (PC-14; first compound 0.8 µM)?
Its relative viability is 0.924.

What about the relative viability (PC-14; first compound 2.53 µM) of the same compound?
Its relative viability is 0.802.

And the relative viability (NCI-H2087; first compound 0.08 µM)?
Its relative viability is 1.21.

And the relative viability (NCI-H2087; first compound 0.253 µM)?
The relative viability was 0.892.

And the relative viability (NCI-H2087; first compound 0.8 µM)?
The relative viability was 1.02.

What about the relative viability (NCI-H2087; first compound 2.53 µM) of the same compound?
Its relative viability is 1.06.

And the relative viability (LXF-289; first compound 0.08 µM)?
Its relative viability is 1.11.

What about the relative viability (LXF-289; first compound 0.253 µM) of the same compound?
Its relative viability is 1.

And the relative viability (LXF-289; first compound 0.8 µM)?
Its relative viability is 1.05.

What about the relative viability (LXF-289; first compound 2.53 µM) of the same compound?
Its relative viability is 1.08.

What about the relative viability (NCI-H596; first compound 0.08 µM) of the same compound?
Its relative viability is 0.532.

And the relative viability (NCI-H596; first compound 0.253 µM)?
Its relative viability is 0.375.

What about the relative viability (NCI-H596; first compound 0.8 µM) of the same compound?
The relative viability was 0.517.

And the relative viability (NCI-H596; first compound 2.53 µM)?
The relative viability was 0.469.

And the relative viability (EPLC-272H; first compound 0.08 µM)?
Its relative viability is 0.911.

What about the relative viability (EPLC-272H; first compound 0.253 µM) of the same compound?
The relative viability was 1.01.

And the relative viability (EPLC-272H; first compound 0.8 µM)?
The relative viability was 0.728.

And the relative viability (EPLC-272H; first compound 2.53 µM)?
Its relative viability is 0.899.

And the relative viability (NCI-H2023; first compound 0.08 µM)?
The relative viability was 0.574.

What about the relative viability (NCI-H2023; first compound 0.253 µM) of the same compound?
The relative viability was 0.656.

And the relative viability (NCI-H2023; first compound 0.8 µM)?
The relative viability was 0.747.

What about the relative viability (NCI-H2023; first compound 2.53 µM) of the same compound?
The relative viability was 1.12.

What about the relative viability (NCI-H2170; first compound 0.08 µM) of the same compound?
Its relative viability is 0.825.

And the relative viability (NCI-H2170; first compound 0.253 µM)?
The relative viability was 0.702.

What about the relative viability (NCI-H2170; first compound 0.8 µM) of the same compound?
The relative viability was 0.757.

And the relative viability (NCI-H2170; first compound 2.53 µM)?
The relative viability was 0.778.

What about the relative viability (NCI-H650; first compound 0.08 µM) of the same compound?
The relative viability was 1.07.

And the relative viability (NCI-H650; first compound 0.253 µM)?
Its relative viability is 1.06.

And the relative viability (NCI-H650; first compound 0.8 µM)?
The relative viability was 1.17.

And the relative viability (NCI-H650; first compound 2.53 µM)?
The relative viability was 1.11.

And the relative viability (A-427; first compound 0.08 µM)?
The relative viability was 1.1.

What about the relative viability (A-427; first compound 0.253 µM) of the same compound?
Its relative viability is 1.05.

What about the relative viability (A-427; first compound 0.8 µM) of the same compound?
Its relative viability is 1.07.

What about the relative viability (A-427; first compound 2.53 µM) of the same compound?
The relative viability was 1.06.

What about the relative viability (CAL-12T; first compound 0.08 µM) of the same compound?
Its relative viability is 1.2.

And the relative viability (CAL-12T; first compound 0.253 µM)?
The relative viability was 1.16.

What about the relative viability (CAL-12T; first compound 0.8 µM) of the same compound?
Its relative viability is 1.2.

What about the relative viability (CAL-12T; first compound 2.53 µM) of the same compound?
Its relative viability is 0.848.
